Measurements from PubChem BioAssay (NCI).
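GI50 is the concentration that inhibits growth by half. TGI: total growth inhibition.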

What was measured:
Test in all cases: NCI anticancer screen, dose series, 384-well format
[1] = tested on: 786-0 renal
[2] = tested on: SF-268 CNS
[3] = tested on: OVCAR-3 ovarian
[4] = tested on: HL-60(TB) leukemia
[5] = tested on: SK-OV-3 ovarian
[6] = tested on: K-562 leukemia
[7] = tested on: DU-145 prostate
[8] = tested on: KM12 colon
[9] = tested on: SW-620 colon
[10] = tested on: MALME-3M melanoma
[11] = tested on: SK-MEL-2 melanoma
[12] = tested on: MDA-MB-231 breast
[13] = tested on: U251 glioblastoma

C[C@@H](C(=O)Nc1ccc(Cl)cc1)C1CCC(c2ccnc3ccc(F)cc23)CC1 (stereo partly specified)
GI50 [1]: 10.8 µM
TGI [1]: 27 µM
GI50 [2]: 6.42 µM
TGI [2]: 22.7 µM
GI50 [3]: 7.15 µM
TGI [3]: 19.9 µM
GI50 [4]: 1.35 µM
TGI [4]: 2.9 µM
GI50 [5]: 16.3 µM
TGI [5]: 42.7 µM
GI50 [6]: 3.38 µM
TGI [6]: 13.7 µM
GI50 [7]: 8.74 µM
TGI [7]: 33.2 µM
GI50 [8]: 5.81 µM
TGI [8]: 19.8 µM
GI50 [9]: 8.3 µM
TGI [9]: 22.6 µM
GI50 [10]: 15.3 µM
TGI [10]: 37.5 µM
GI50 [11]: 3.07 µM
TGI [11]: 10.2 µM
GI50 [12]: 13.3 µM
TGI [12]: 65.1 µM
GI50 [13]: 9.96 µM
TGI [13]: 26.2 µM
